How the values were obtained:
Homo sapiens [1] = species: Homo sapiens; assay: Selectivity index, ratio of IC50 for human recombinant CYP1A2 to IC50 for human recombinant CYP1B1 using 7-ethoxyresorufin as substrate
Homo sapiens [2] = species: Homo sapiens; assay: Selectivity index, ratio of IC50 for human recombinant CYP1A1 to IC50 for human recombinant CYP1B1 using 7-ethoxyresorufin as substrate
Cytochrome P450 1A2 = molecular target: T1, Cytochrome P450 1A2 (Homo sapiens, UniProt P05177); assay: Inhibition of human recombinant CYP1A2 using 7-ethoxyresorufin as substrate incubated under dark condition for 45 mins in presence of NADPH by EROD fluorescence assay; assay type: ADME
T1 sequence (P05177 whole entry): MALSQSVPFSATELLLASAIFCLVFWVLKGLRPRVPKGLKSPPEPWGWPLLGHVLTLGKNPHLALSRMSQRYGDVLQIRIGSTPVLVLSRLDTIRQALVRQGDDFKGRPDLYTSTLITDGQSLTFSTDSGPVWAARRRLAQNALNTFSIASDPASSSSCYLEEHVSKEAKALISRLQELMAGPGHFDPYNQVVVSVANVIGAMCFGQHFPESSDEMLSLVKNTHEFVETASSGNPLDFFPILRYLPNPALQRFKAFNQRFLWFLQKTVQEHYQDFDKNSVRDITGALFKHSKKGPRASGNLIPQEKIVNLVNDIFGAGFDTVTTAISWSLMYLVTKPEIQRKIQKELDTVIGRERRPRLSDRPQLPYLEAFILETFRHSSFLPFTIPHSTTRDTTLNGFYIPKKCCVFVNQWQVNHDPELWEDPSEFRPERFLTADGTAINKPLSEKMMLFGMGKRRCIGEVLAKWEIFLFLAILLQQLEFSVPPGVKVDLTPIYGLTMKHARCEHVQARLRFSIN

Cytochrome P450 1A1 = molecular target: T2, Cytochrome P450 1A1 (Homo sapiens, UniProt P04798); assay: Inhibition of human recombinant CYP1A1 using 7-ethoxyresorufin as substrate incubated under dark condition for 15 mins in presence of NADPH by EROD fluorescence assay; assay type: ADME
T2 sequence (P04798 whole entry): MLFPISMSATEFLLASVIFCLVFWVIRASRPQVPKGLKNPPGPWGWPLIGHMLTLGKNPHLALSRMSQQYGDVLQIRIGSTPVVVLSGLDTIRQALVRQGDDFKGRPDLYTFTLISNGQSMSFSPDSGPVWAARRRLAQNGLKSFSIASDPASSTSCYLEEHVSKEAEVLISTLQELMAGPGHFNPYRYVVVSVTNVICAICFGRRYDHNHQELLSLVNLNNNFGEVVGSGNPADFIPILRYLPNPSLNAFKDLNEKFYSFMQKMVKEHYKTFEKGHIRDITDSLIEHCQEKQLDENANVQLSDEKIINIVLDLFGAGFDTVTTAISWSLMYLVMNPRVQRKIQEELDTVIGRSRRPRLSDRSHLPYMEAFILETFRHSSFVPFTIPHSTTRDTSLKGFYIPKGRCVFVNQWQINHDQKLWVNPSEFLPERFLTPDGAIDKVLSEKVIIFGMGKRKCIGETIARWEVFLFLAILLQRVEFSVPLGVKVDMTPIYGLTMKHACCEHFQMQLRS

Cytochrome P450 1B1 = molecular target: T3, Cytochrome P450 1B1 (Homo sapiens, UniProt Q16678); assay: Inhibition of human recombinant CYP1B1 using 7-ethoxyresorufin as substrate incubated under dark condition for 30 mins in presence of NADPH by EROD fluorescence assay; assay type: ADME
T3 sequence (Q16678 whole entry): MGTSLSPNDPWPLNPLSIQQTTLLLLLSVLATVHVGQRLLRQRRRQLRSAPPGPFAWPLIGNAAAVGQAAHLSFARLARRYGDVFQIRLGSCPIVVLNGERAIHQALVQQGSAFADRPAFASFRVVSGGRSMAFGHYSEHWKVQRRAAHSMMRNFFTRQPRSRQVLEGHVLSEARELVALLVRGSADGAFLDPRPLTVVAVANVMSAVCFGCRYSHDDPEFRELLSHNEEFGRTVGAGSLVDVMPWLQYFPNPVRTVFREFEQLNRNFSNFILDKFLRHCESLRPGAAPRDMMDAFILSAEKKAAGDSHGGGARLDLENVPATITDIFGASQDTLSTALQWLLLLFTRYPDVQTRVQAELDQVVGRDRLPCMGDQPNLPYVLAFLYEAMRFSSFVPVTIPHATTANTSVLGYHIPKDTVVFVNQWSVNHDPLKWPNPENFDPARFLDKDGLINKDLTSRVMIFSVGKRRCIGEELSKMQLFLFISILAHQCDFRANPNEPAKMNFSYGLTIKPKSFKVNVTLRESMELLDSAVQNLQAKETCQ

Row | Compound | Ratio IC50 (Homo sapiens [1]) | Ratio IC50 (Homo sapiens [2]) | IC50 (Cytochrome P450 1A2) [nM] | IC50 (Cytochrome P450 1A1) [nM] | IC50 (Cytochrome P450 1B1) [nM]
1 | N#Cc1cccc(-c2csc(C(=O)Nc3ccc(C(F)(F)F)cc3)n2)c1 | > 34100 | 7.3 | > 100000 | 21.4 | 2.93
2 | N#Cc1cccc(-c2csc(C(=O)Nc3ccc(OC(F)F)cc3)n2)c1 | > 5550 | 7.8 | > 50000 | 70 | 9.02
3 | NC(=O)c1ccc(-c2csc(C(=O)Nc3cc(Cl)cc(Cl)c3)n2)cc1 | > 1250 | > 12500 | > 10000 | > 100000 | 7.97
4 | COc1cc(NC(=O)c2nc(-c3ccccc3F)cs2)cc(OC)c1 | 86.5 | 21.5 | 1440 | 358 | 16.6
5 | CC(C)c1ccc(-c2csc(C(=O)Nc3cc(Cl)cc(Cl)c3)n2)cc1 | 34.5 | 1.7 | 9540 | 456 | 276
6 | O=C(Nc1cc(Cl)cc(Cl)c1)c1nc(-c2ccccc2F)cs1 | 147 | 107 | 178 | 129 | 1.21
7 | O=C(Nc1cc(Cl)cc(Cl)c1)c1nc(-c2cncc(Cl)c2)cs1 | 5.5 | 6.5 | 9.7 | 11.5 | 1.77
8 | O=C(Nc1ccc(F)cc1F)c1nc(-c2ccc(F)cc2)cs1 | 230 | 437 | 213 | 404 | 0.93
9 | O=C(Nc1cc(Cl)cc(Cl)c1)c1nc(-c2cccc(F)c2)cs1 | 1880 | 105 | 4720 | 264 | 2.51
10 | O=C(Nc1ccc(Cl)cc1Cl)c1nc(-c2cccc(F)c2)cs1 | 1240 | 77.4 | 2380 | 149 | 1.92
11 | Cc1cccc(-c2csc(C(=O)Nc3cc(Cl)cc(Cl)c3)n2)c1 | > 229 | 53.4 | > 10000 | 2330 | 43.7
12 | O=C(Nc1cc(Cl)cc(Cl)c1)c1nc(-c2ccc(Br)cc2)cs1 | 167 | > 3790 | 4390 | > 100000 | 26.4
13 | NC(=O)c1ccc(-c2csc(C(=O)Nc3ccc(OC(F)F)cc3)n2)cc1 | 5590 | 104 | 5730 | 106 | 1.03
14 | O=C(Nc1cc(Cl)cc(Cl)c1)c1nc(-c2ccc(I)cc2)cs1 | 71 | > 445 | 1590 | > 10000 | 22.5
15 | Cc1ccc(-c2csc(C(=O)Nc3cc(Cl)cc(Cl)c3)n2)cc1 | 1430 | 55.1 | 14700 | 566 | 10.3
16 | NC(=O)c1cccc(-c2csc(C(=O)Nc3ccc(OC(F)F)cc3)n2)c1 | 2490 | 32 | 5010 | 64.4 | 2.01
17 | Cc1sc(C(=O)Nc2ccc(OC(F)F)cc2)nc1-c1cccc(F)c1 | 889 | 61.9 | 2700 | 188 | 3.04
18 | O=C(Nc1cc(Cl)cc(Cl)c1)c1nc(-c2ccc(F)cc2)c(-c2ccccc2)s1 | > 93.7 | 0.1 | > 100000 | 121 | 1070
19 | Cc1sc(C(=O)Nc2cc(Cl)cc(Cl)c2)nc1-c1cccc(Cl)c1 | > 5850 | 25.2 | > 10000 | 43.1 | 1.71
20 | Cc1sc(C(=O)Nc2ccc(C(F)(F)F)cc2)nc1-c1cccc(F)c1 | 1100 | 79.2 | 2330 | 168 | 2.12
21 | O=C(Nc1ccc(C(F)(F)F)cc1)c1nc(-c2ccc(F)cc2)cs1 | 567 | 323 | 608 | 346 | 1.07
22 | O=C(Nc1ccc(C(F)(F)F)cc1)c1nc(-c2ccc(Cl)cc2)cs1 | 510 | 142 | 248 | 69.2 | 0.49
23 | N#Cc1ccc(-c2csc(C(=O)Nc3ccc(OC(F)F)cc3)n2)cc1 | > 101000 | 114 | > 100000 | 113 | 0.99
24 | O=C(Nc1ccc(Cl)cc1Cl)c1nc(-c2ccccc2F)cs1 | 63.6 | 88.3 | 142 | 197 | 2.23
25 | Nc1ccc(-c2csc(C(=O)Nc3cc(Cl)cc(Cl)c3)n2)cc1 | 58.7 | 6.8 | 8340 | 962 | 142
26 | Cc1ccccc1-c1csc(C(=O)Nc2cc(Cl)cc(Cl)c2)n1 | 9.7 | 4.3 | 601 | 266 | 62
27 | O=C(Nc1cc(Cl)cc(Cl)c1)c1nc(-c2ccnc(Cl)c2)cs1 | > 23400 | 16 | > 100000 | 68.3 | 4.28
28 | O=C(Nc1ccc(OC(F)F)cc1)c1nc(-c2ccc(F)cc2)cs1 | 1730 | 122 | 820 | 58.1 | 0.47
